Numbers after ± are expanded uncertainties.
Experiments:
[1] = molar heat capacity at constant pressure; conditions: 101.33 kPa, Crystal, Large sample (1 g) DSC
[2] = Molar enthalpy of transition or fusion; conditions: Crystal; DSC
[3] = Crystal; DTA

NC(=NO)c1nonc1N [4-amino-3-furazancarboxamidoxime]
[1]
Conditions	molar heat capacity at constant pressure [J/K/mol]
283.15 K	173.37 ± 3.5
288.15 K	175.71 ± 3.5
293.15 K	178.06 ± 3.6
298.15 K	180.4 ± 3.6
303.15 K	182.75 ± 3.7
308.15 K	185.1 ± 3.7
313.15 K	187.44 ± 3.8
318.15 K	189.79 ± 3.8
323.15 K	192.13 ± 3.8
328.15 K	194.48 ± 3.9
333.15 K	196.83 ± 3.9
338.15 K	199.17 ± 4
343.15 K	201.52 ± 4
348.15 K	203.86 ± 4.1
353.15 K	206.21 ± 4.1

Conditions	Molar enthalpy of transition or fusion [kcal/mol]	Normal melting temperature [°C]
[2]	8.99 ± 0.213	–
[3]	–	180.41 ± 0.86
